Results published in the supplement of paper PMC10307832.

Legend:
Assay in all cases: relative viability (nuclei count vs DMSO), 5 days (fraction); higher = more cells survive
Dinaciclib + Bortezomib = compound: CCc1cnn2c(NCc3ccc[n+]([O-])c3)cc(N3CCCC[C@H]3CCO)nc12 [Dinaciclib] + CC(C)C[C@H](NC(=O)[C@H](Cc1ccccc1)NC(=O)c1cnccn1)B(O)O [Bortezomib] (partner 0.002 µM)
Procedure, shortened: (§1)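 Medians of duplicate plates are given as relative viability. That measure is the nuclei count in treated wells divided by the count in vehicle wells. Counts were taken on 4× images of lung cancer cell lines in 1536-well plates, 5 days after pin-tool dosing the day after seeding with one drug alone or a fixed anchor-drug dose plus five library-drug doses (not always all listed) in √10 steps.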

Dinaciclib + OSI-027 = compound: CCc1cnn2c(NCc3ccc[n+]([O-])c3)cc(N3CCCC[C@H]3CCO)nc12 [Dinaciclib] + COc1cccc2cc(-c3nc([C@H]4CC[C@H](C(=O)O)CC4)n4ncnc(N)c34)[nH]c12 [OSI-027] (partner 0.5 µM)
Procedure, shortened: as §1

Dinaciclib + Crizotinib = compound: CCc1cnn2c(NCc3ccc[n+]([O-])c3)cc(N3CCCC[C@H]3CCO)nc12 [Dinaciclib] + C[C@@H](Oc1cc(-c2cnn(C3CCNCC3)c2)cnc1N)c1c(Cl)ccc(F)c1Cl [Crizotinib] (partner 1 µM)
Procedure, shortened: as §1

Dinaciclib + Pemetrexed = compound: CCc1cnn2c(NCc3ccc[n+]([O-])c3)cc(N3CCCC[C@H]3CCO)nc12 [Dinaciclib] + Nc1nc2[nH]cc(CCc3ccc(C(=O)N[C@@H](CCC(=O)O)C(=O)O)cc3)c2c(=O)[nH]1 [Pemetrexed] (partner 0.2 µM)
Procedure, shortened: as §1

Dinaciclib + Decitabine = compound: CCc1cnn2c(NCc3ccc[n+]([O-])c3)cc(N3CCCC[C@H]3CCO)nc12 [Dinaciclib] + Nc1ncn([C@H]2C[C@H](O)[C@@H](CO)O2)c(=O)n1 [Decitabine] (partner 2 µM)
Procedure, shortened: as §1

| Cell Line | relative viability (Dinaciclib + Bortezomib; first compound 0.009487 µM) | relative viability (Dinaciclib + Bortezomib; first compound 0.03 µM) | relative viability (Dinaciclib + Bortezomib; first compound 0.09487 µM) | relative viability (Dinaciclib + Bortezomib; first compound 0.3 µM) | relative viability (Dinaciclib + OSI-027; first compound 0.009487 µM) | relative viability (Dinaciclib + OSI-027; first compound 0.03 µM) | relative viability (Dinaciclib + OSI-027; first compound 0.09487 µM) | relative viability (Dinaciclib + OSI-027; first compound 0.3 µM) | relative viability (Dinaciclib + Crizotinib; first compound 0.009487 µM) | relative viability (Dinaciclib + Crizotinib; first compound 0.03 µM) | relative viability (Dinaciclib + Crizotinib; first compound 0.09487 µM) | relative viability (Dinaciclib + Crizotinib; first compound 0.3 µM) | relative viability (Dinaciclib + Pemetrexed; first compound 0.009487 µM) | relative viability (Dinaciclib + Pemetrexed; first compound 0.03 µM) | relative viability (Dinaciclib + Pemetrexed; first compound 0.09487 µM) | relative viability (Dinaciclib + Pemetrexed; first compound 0.3 µM) | relative viability (Dinaciclib + Decitabine; first compound 0.009487 µM) | relative viability (Dinaciclib + Decitabine; first compound 0.03 µM) | relative viability (Dinaciclib + Decitabine; first compound 0.09487 µM) | relative viability (Dinaciclib + Decitabine; first compound 0.3 µM) |
| --- | --- | --- | --- | --- | --- | --- | --- | --- | --- | --- | --- | --- | --- | --- | --- | --- | --- | --- | --- | --- |
| 201T | 1.15 | 0.718 | 0.321 | 0.281 | 0.801 | 0.297 | 0.119 | 0.183 | 0.938 | 0.739 | 0.265 | 0.313 | 0.317 | 0.311 | 0.206 | 0.187 | 0.943 | 0.767 | 0.168 | 0.209 |
| A-427 | 0.969 | 0.487 | 0.0789 | 0.0623 | 0.385 | 0.143 | 0.0922 | 0.0796 | 0.72 | 0.12 | 0.057 | 0.0481 | 0.883 | 0.156 | 0.101 | 0.112 | 0.508 | 0.153 | 0.119 | 0.116 |
| ABC-1 | 0.231 | 0.179 | 0.167 | 0.157 | 0.329 | 0.123 | 0.104 | 0.118 | 1.16 | 0.178 | 0.11 | 0.0832 |  |  |  |  | 0.963 | 0.338 | 0.297 | 0.237 |
| BEN | 0.817 | 0.497 | 0.159 | 0.247 | 0.289 | 0.264 | 0.191 | 0.198 | 1 | 0.512 | 0.18 | 0.215 | 1.07 | 0.501 | 0.23 | 0.274 | 0.88 | 0.572 | 0.245 | 0.313 |
| CAL-12T | 0.484 | 0.203 | 0.142 | 0.127 | 0.235 | 0.136 | 0.118 | 0.124 | 0.503 | 0.0856 | 0.0861 | 0.103 | 0.771 | 0.141 | 0.133 | 0.13 |  |  |  |  |
| COR-L23 | 0.646 | 0.0952 | 0.0792 | 0.0558 | 0.608 | 0.0953 | 0.0761 | 0.0902 | 0.456 | 0.0842 | 0.0684 | 0.0575 | 0.184 | 0.21 | 0.112 | 0.093 | 0.388 | 0.114 | 0.0933 | 0.0952 |
| COR-L 105 | 0.61 | 0.192 | 0.219 | 0.212 | 0.51 | 0.232 | 0.224 | 0.234 | 0.923 | 0.192 | 0.171 | 0.189 | 0.91 | 0.291 | 0.348 | 0.295 | 0.618 | 0.408 | 0.304 | 0.278 |
| ChaGo-K-1 | 0.637 | 0.222 | 0.178 | 0.187 | 0.499 | 0.186 | 0.128 | 0.119 | 0.699 | 0.229 | 0.224 | 0.214 | 0.257 | 0.216 | 0.149 | 0.119 | 0.531 | 0.287 | 0.138 | 0.128 |
